The values that follow are results of earlier work, collected in patent US12576020B2, “Increasing the stability of agents for the treatment of keratinous material” (Henkel AG & Co. KGaA, priority 2019, dated 2026).

For the data set the following is noted: 25° C.

Take `O=S(=O)([O-])c1ccc(N=Nc2c(O)ccc3ccccc23)cc1.[Na+]` [Acid Orange 7, sodium salt of 4-[(2-hydroxy-1-naphthyl)azo]benzene sulphonate]: the solubility in water result is “more than 7 g/L”.

As for `Nc1cc(S(=O)(=O)[O-])cc2cc(S(=O)(=O)[O-])c(N=Nc3ccccc3)c(O)c12.[Na+].[Na+]` [Acid Red 33, disodium salt of 5-amino-4-hydroxy-3-(phenylazo)-naphthalene-2,7-disulphonate], the solubility in water was 2500 µg/mL.

Regarding `O=C([O-])c1c(Cl)c(Cl)c(Cl)c(Cl)c1-c1c2c(Br)cc(=O)c(Br)c-2oc2c(Br)c(O)cc(Br)c12.O=C([O-])c1c(Cl)c(Cl)c(Cl)c(Cl)c1-c1c2c(Br)cc(=O)c(Br)c-2oc2c(Br)c(O)cc(Br)c12.[Na+].[Na+]` [Acid Red 92, disodium salt of 3,4,5,6-tetrachloro-2-(1,4,5,8-tetrabromo-6-hydroxy-3-oxoxanthen-9-yl)benzoic acid], the solubility in water entry is recorded as “greater than 10 g/L”.

On to `O=C([O-])C1=NN(c2ccc(S(=O)(=O)[O-])cc2)C(=O)C1N=Nc1ccc(S(=O)(=O)[O-])cc1.[Na+].[Na+].[Na+]` (stereo not shown) [Acid Yellow 23, tisodium salt of 4,5-dihydro-5-oxo-1-(4-sulfophenyl)-4-((4-sulfophenyl)azo)-1H-pyrazole-3-carboxylic acid], for which the “solubility in water (in words)” value is reported as “highly soluble”.
